These results are taken from article PMC12024213, “Mechanism Insight of Cell Death Signaling by Thymol Derivatives on Trypanosomatidae Protozoan Parasites” (Antibiotics, 2025).

What is called IC50 is the point on the concentration scale where inhibition reaches its midpoint. A word on the CC50: it is the concentration at which the toxic effect on the cells reaches its halfway point.

Values after ≈ are worked out from the molar mass of the structure shown. Where two headings read alike, the source gives them in different places.

Series [1] can be described thus: alamarBlue assay on T. cruzi epimastigotes. In kind it is cell-based, Trypanosoma cruzi. The settings on record: mouse; CC50 J774.A1 / IC50 T. cruzi epimastigotes; read-out: Selectivity Trypanosoma SI (CC50/IC50). On the procedure: (§1) In a 96-well plate, a serial dilution of the tested derivatives was performed in liver infusion tryptose medium supplemented with 10% heat inactivated fetal bovine serum. Later, 100 µL of 5 × 10^5 cells/mL of epimastigotes was added to each well. Afterwards, 20 µL of alamarBlue® was added to each well, and the plate was maintained at 26 °C for 72 h.
(§2) Cytotoxicity effect of the tested derivatives was conducted using macrophages of the murine cell line J774.A1 (American Type Culture Collection #TIB-67, city, country), as previously described. The cells were maintained in DMEM at 37 °C in a 5% CO2 humidified incubator. All the plates containing alamarBlue® were analyzed using a plate reader EnSpire Multimode Plate Reader® at excitation and emission wavelengths of 570 and 585 nm, respectively (PerkinElmer, ThermoFisher Scientific, Madrid, Spain). The IC50 (concentrations able to inhibit 50% of parasites), IC90 (concentrations able to inhibit 90% of parasites), and CC50 (concentration able to inhibit 50% of murine macrophages) values were determined for each compound by nonlinear regression using GraphPad software.
A general note: The colour change of resazurin is a common sign of viable cells or microbes.

Another series deals with T. cruzi epimastigotes. As to the kind of experiment: alamarBlue assay on T. cruzi epimastigotes. In kind it is cell-based, Trypanosoma cruzi. Conditions: mean ± SD, triplicates. On the procedure: as §1, §2
The nature of series [2]: Cytotoxicity assay on murine macrophages (alamarBlue). Type of series: cell-based. The settings on record: mouse, mean ± SD. On the procedure:
as §2

Series [3] in a line: Intramacrophagic stage assay, T. cruzi in J774.A1 macrophages. Conditions: mouse; CC50 J774.A1 / IC50 intracellular T. cruzi; read-out: Selectivity Trypanosoma SI (CC50/IC50). Type of series: cell-based, Trypanosoma cruzi. On the procedure:
(§3) Briefly, in a 96-well plate, macrophages from the J774.A1 cell line were seeded at a final concentration of 2 × 10^5 cells/mL in Dulbecco’s Modified Eagle Medium (DMEM) and maintained at 37 °C in a 5% CO2 atmosphere until fully adhesion. Cells were infected either with L. amazonensis promastigotes (at a ratio of 1:10) or epimastigotes of T. cruzi (at a ratio of 1:7) (macrophage: parasite) and incubated at 37 °C in 5% CO2 for 24 h for Leishmania and 48 h for Trypanosoma. After infection, plates were washed using DMEM to eliminate external parasites. Subsequently, infected macrophages were treated with different concentrations of active compounds for 24 h. Later, macrophages were lysed using 30 μL of medium, Schneider for Leishmania, and in liver infusion tryptose for Trypanosoma, containing 0.05% of sodium dodecyl sulfate (SDS) for 30 s under agitation. Afterwards, 170 μL of the appropriated medium was derivatives added to each well to give a final volume of 200 μL. Subsequently, 10% of alamarBlue® was added into each well and the plate was incubated at 26 °C for 72 h.
as §2

The next series deals with intramacrophage T. cruzi. The description is as above. In kind it is cell-based, Trypanosoma cruzi. The settings on record: Trypanosoma cruzi; intramacrophage stage in J774.A1, 24 h treatment; mean ± SD; read-out: T. cruzi Intracellular IC50. As to the method:
as §3, §2

For another series, the system named is L. chagasi. Details: method as in PMID 20428679. The settings on record: cited from earlier work.
The subject of a further series is L. amazonensis. Also on record: method as in PMID 28509873. The settings on record: cited from earlier work.
Series [4] can be described thus: alamarBlue assay on L. amazonensis promastigotes. Type of series: cell-based, Leishmania amazonensis. The settings on record: mouse; CC50 J774.A1 / IC50 L. amazonensis promastigotes; read-out: Selectivity Leishmania SI (CC50/IC50). As to the method: (§4) The assay was conducted using the alamarBlue® method as previously described. Briefly, promastigotes of L. amazonensis were grown at 26 °C in Schneider’s medium (US Biological, Life sciences) and supplemented with 10% heat-inactivated fetal bovine serum and 0.04% of sodium bicarbonate. In a 96-well microtiter plates (Corning™, Corning, NY, USA) a serial dilutions of thymol derivatives were first prepared, and later, 10^6 parasites/mL were added into each well. Subsequently, 10% of alamarBlue® was added to the entire plate. The plates were incubated for 72 h at 26 °C.
as §2

Series [5] has as its system L. amazonensis promastigotes. As to the kind of experiment: alamarBlue assay on L. amazonensis promastigotes. Conditions: mean ± SD, triplicates. Type of series: cell-based, Leishmania amazonensis. On the procedure: as §4, §2
Another series has as its system L. infantum. Details: method as in PMID 31151304. Conditions: cited from earlier work.
The test system of series [6] is promastigote stage of L. major. Also on record: method as in PMID 37595813. Conditions: cited from earlier work.
Series [7] deals with promastigote stage of L. tropica. Details: method as in PMID 37595813. Conditions: cited from earlier work.
Series [8] has as its system promastigote stage of L. infantum and L. chagasi. Also on record: method as in PMID 25281268. The settings on record: cited from earlier work.
Series [9] has as its system amastigote stage of L. infantum and L. chagasi. Details: method as in PMID 25281268. The settings on record: cited from earlier work.
In series [10] the test system is intramacrophage L. amazonensis. As to the kind of experiment: Intramacrophagic stage assay, L. amazonensis in J774.A1 macrophages. Type of series: cell-based, Leishmania amazonensis. Conditions: Leishmania amazonensis; intramacrophage stage in J774.A1, 24 h treatment; mean ± SD; read-out: L. amazonensis Intracellular IC50. As to the method:
as §3, with “fully adhesion. […] After infection,” for “fully adhesion. Cells were infected either with L. amazonensis promastigotes (at a ratio of 1:10) or epimastigotes of T. cruzi (at a ratio of 1:7) (macrophage: parasite) and incubated at 37 °C in 5% CO2 for 24 h for Leishmania and 48 h for Trypanosoma. After infection,”, “72 h. Cytotoxicity effect of the tested derivatives was conducted using macrophages of the murine cell line J774.A1 (American Type Culture Collection #TIB-67, city, country), as previously described. The cells were maintained in DMEM at 37 °C in a 5% CO2 humidified incubator.” for “72 h.”

Experiment in series [11]: as above
The settings on record: mouse; CC50 J774.A1 / IC50 intracellular L. amazonensis; read-out: Selectivity Leishmania SI (CC50/IC50). In kind it is cell-based, Leishmania amazonensis. As to the method: as §3, with “fully adhesion. […] After infection,” for “fully adhesion. Cells were infected either with L. amazonensis promastigotes (at a ratio of 1:10) or epimastigotes of T. cruzi (at a ratio of 1:7) (macrophage: parasite) and incubated at 37 °C in 5% CO2 for 24 h for Leishmania and 48 h for Trypanosoma. After infection,”, “72 h. Cytotoxicity effect of the tested derivatives was conducted using macrophages of the murine cell line J774.A1 (American Type Culture Collection #TIB-67, city, country), as previously described. The cells were maintained in DMEM at 37 °C in a 5% CO2 humidified incubator.” for “72 h.”

The mark [12] stands for this setting: Trypanosoma cruzi, 72 h, epimastigotes, alamarBlue, 72 h at 26 °C, read-out: T. cruzi Epimastigote IC50.
Setting [13] is: Leishmania amazonensis, 72 h, promastigotes, alamarBlue, 72 h at 26 °C, read-out: L. amazonensis Promastigote IC50.
Setting [14] is: epimastigotes, alamarBlue, 72 h at 26 °C, read-out: T. cruzi Epimastigote IC50.

For `O=C(Cn1ccnc1[N+](=O)[O-])NCc1ccccc1` [B, Benznidazole, reference compound], the selectivity ratio was found to be 58 in [1] and 148 in series [3]. Further, the IC50 stood at 6.9 ± 0.8 µM in the series with T. cruzi epimastigotes (setting [12]) and 2.7 ± 0.4 µM in the series with intramacrophage T. cruzi. The compound further returned a CC50 in series [2] (J774.A1 macrophage cell line) of 399.9 ± 1.4 µM.

`Cc1ccc(C(C)C)c(O)c1` [Compound 1, thymol]: the selectivity ratio in [1] was > 1.5; in series [4] it was > 0.9. Besides, the IC50 in the series with T. cruzi epimastigotes (setting [12]) was 206 ± 2.8 µM; in [5] (setting [13]), 318 ± 21.4 µM. Further, the “IC50 against L. chagasi” value with L. chagasi is 28.0 µg/mL (≈ 186 µM). Further, in series [2] (J774.A1 macrophage cell line), the CC50 was > 300 µM. In addition, in the series with L. amazonensis, the “IC50 against L. amazonensis” value is 26.8 µg/mL (≈ 178 µM). The “IC50 against L. infantum” value in the series on L. infantum was 7.2 µg/mL (≈ 47.9 µM). For the same compound, the “activity against promastigote stage of L. major” value in series [6] is “inactive”. In addition, in series [7], the “activity against promastigote stage of L. tropica” value is “inactive”.

As to `CC(=O)Oc1cc(C)ccc1C(C)C` [Derivative 2, thymyl acetate], the “EC50 against promastigote stage” value in [8] was 9.07 µg/mL. The IC50 (in the series on T. cruzi epimastigotes (setting [12]); in series [5] (setting [13])) was > 350 µM in each case. In addition, the “EC50 against amastigote stage” value in series [9] is 10.95 µg/mL.

On to `Cc1ccc(C(C)C)c(OC(=O)CCl)c1` [Derivative 3, thymyl chloroacetate], for which the selectivity ratio in [1] is > 6.1; in series [4] it was > 3.8. In addition, the IC50 with T. cruzi epimastigotes (Trypanosoma cruzi, epimastigotes, alamarBlue, 72 h at 26 °C, read-out: T. cruzi Epimastigote IC50) is 49.5 ± 3.2 µM; in [5] (Leishmania amazonensis, promastigotes, alamarBlue, 72 h at 26 °C, read-out: L. amazonensis Promastigote IC50) it was 78.8 ± 15.9 µM. Also, the CC50 in [2] (murine macrophages J774.A1) was > 300 µM.

For the compound `Cc1ccc(C(C)C)c(OCC(=O)OC(=O)CCl)c1` [Derivative 4, 2-thymyl-2′-(chloro)-acetic anhydride], the results for the selectivity ratio in series [1] and in [4] were 0.9 and 0.8, respectively. Besides, the IC50 in the series on T. cruzi epimastigotes (setting [12]) came out at 124 ± 6 µM; in series [5] (setting [13]), 148 ± 10 µM. In series [2] (J774.A1 macrophage cell line), the midpoint of cytotoxicity, the CC50, lay at 120.9 ± 0.4 µM.

Take `CCCC(=O)Oc1cc(C)ccc1C(C)C` [Derivative 5, thymyl butyrate]: the selectivity ratio in [1] and in series [4] was > 1.4 each time. Further, the concentration for half-maximal inhibition (IC50) in the series with T. cruzi epimastigotes (setting [12]) was 150 to 250 µM; with T. cruzi epimastigotes (setting [14]) it was 211 ± 7.3 µM; in series [5] (setting [13]), 150 to 250 µM; in series [5] (promastigotes, alamarBlue, 72 h at 26 °C, read-out: L. amazonensis Promastigote IC50), 216 ± 7.5 µM. Moreover, the CC50 in series [2] (J774.A1 macrophage cell line) is > 300 µM.

Regarding `Cc1ccc(C(C)C)c(OC(=O)CCC(=O)O)c1` [Derivative 6, thymyl hemisuccinate], the half-inhibitory concentration (IC50) (with T. cruzi epimastigotes (setting [12]); in series [5] (setting [13])) was > 350 µM throughout.

On to `Cc1ccc(C(C)C)c(OC(=O)c2ccccc2)c1` [Derivative 7, thymyl benzoate], for which, in series [8], the “EC50 against promastigote stage” value is 8.67 µg/mL (≈ 34.1 µM). Further, the selectivity ratio in series [1] is > 4.5; in series [4] it was > 5.4. Besides, the half-inhibitory concentration (IC50) in the series with T. cruzi epimastigotes (setting [12]) is 66 ± 1.7 µM; in [5] (setting [13]), 56 ± 5.6 µM. The cytotoxic concentration (CC50) in series [2] (J774.A1 macrophage cell line) is > 300 µM. Further, in [9], the “EC50 against amastigote stage” value was 15.09 µg/mL (≈ 59.3 µM).

In the case of `Cc1ccc(C(C)C)c(OC(=O)c2ccc([N+](=O)[O-])cc2)c1` [Derivative 8, thymyl-4-nitrobenzoate], the values for the selectivity ratio in series [1] and in series [4] were > 6.8 and > 3.9, respectively. Also, the half-maximal inhibitory concentration (IC50) in the series with T. cruzi epimastigotes (setting [12]) was 50 to 150 µM; in the series on T. cruzi epimastigotes (setting [14]), 44.4 ± 2.5 µM; in series [5] (setting [13]) it was 76.4 ± 6.2 µM. For the same compound, the half-maximal cytotoxic concentration (CC50) in series [2] (J774.A1 macrophage cell line) is > 300 µM.

As to `Cc1ccc(C(C)C)c(OC(=O)Oc2ccc([N+](=O)[O-])cc2)c1` [Derivative 11, thymyl-4-nitrophenylcarbonate], the selectivity ratio is > 4.5 in series [1] and > 5.2 in [4]. For the same compound, the IC50 was found to be 66.9 ± 3.8 µM in the series on T. cruzi epimastigotes (setting [12]) and 56.9 ± 7.2 µM in [5] (setting [13]). Also, in [2] (J774.A1 macrophage cell line), the CC50 was > 300 µM.

Consider `Cc1ccc(C(C)C)c(OC(=O)N(C)C)c1` [Derivative 12, thymyl N,N-dimethyl carbamate], for which the selectivity ratio was > 1.9 in series [1] and > 1.3 in [4]. In addition, the IC50 is 150 to 250 µM in the series on T. cruzi epimastigotes (Trypanosoma cruzi, 72 h, read-out: T. cruzi Epimastigote IC50, epimastigotes, alamarBlue, 72 h at 26 °C); 158 ± 2.9 µM with T. cruzi epimastigotes (read-out: T. cruzi Epimastigote IC50, epimastigotes, alamarBlue, 72 h at 26 °C); 150 to 250 µM in series [5] (Leishmania amazonensis, 72 h, read-out: L. amazonensis Promastigote IC50, promastigotes, alamarBlue, 72 h at 26 °C); 229 ± 21.4 µM in [5] (read-out: L. amazonensis Promastigote IC50, promastigotes, alamarBlue, 72 h at 26 °C). Moreover, the 50% cytotoxic concentration (CC50) in [2] (murine macrophages J774.A1) is > 300 µM.

`CCCCCCCCCCCCCCCCOP(=O)([O-])OCC[N+](C)(C)C` [M, Miltefosine, reference compound] registered a CC50 in series [2] (J774.A1 macrophage cell line) of 72.2 ± 8.9 µM. Besides, the selectivity ratio amounted to 11.1 in [4] and 23.3 in [11]. For the same compound, the IC50 in [5] (setting [13]) amounted to 6.5 ± 0.3 µM; in series [10] it was 3.1 ± 0.3 µM.
